Reference: ChEMBL document CHEMBL6127052, “Discovery of membrane-targeting amphiphilic honokiol derivatives containing an oxazolethione moiety to combat methicillin-resistant Staphylococcus aureus (MRSA) infections” (Eur J Med Chem, 2024)
Calls of active or inactive are those of the source. No cut-off for these calls is given here.

Key:
Staphylococcus aureus [1] = experiment: Antibacterial activity against methicillin-resistant Staphylococcus aureus clinical isolate M12 infected in KM mouse assessed as reduction in TNF-alpha level at infection site at 10 mg/kg, sc measured after 24 hrs by ELISA; assay type: functional
[2] = Toxicity in KM mouse assessed as necrosis in cardiac muscle fibers at 20 mg/kg, sc measured after 24 hrs by H and E staining based analysis; assay type: organism-based; details: in vivo
Staphylococcus aureus [3] = experiment: Antibacterial activity against methicillin-resistant Staphylococcus aureus clinical isolate M12 infected in KM mouse assessed as decrease in erythematous pustules at infected skin on back of animal at 5 mg/kg, sc measured after 24 hrs; assay type: functional, organism-based
[4] = Toxicity in BALB/c mouse assessed as necrosis in renal tubular epithelial cells at 15 mg/kg, ip bid for 7 days; assay type: organism-based; details: in vivo, 168 h, time 7 day
[5] = Toxicity in BALB/c mouse assessed as change in blood routine index at 15 mg/kg, ip bid for 7 days; assay type: organism-based; details: in vivo, 168 h, time 7 day
[6] = Toxicity in KM mouse assessed as change in creatinine level at 20 mg/kg, sc measured after 24 hrs; assay type: organism-based; details: in vivo
Staphylococcus aureus [7] = experiment: (§1) Antibacterial activity against methicillin-resistant Staphylococcus aureus clinical isolate M12 infected in sepsis BALB/c mouse model assessed as decrease in necrosis in hepatocytes at 6 mg/kg, ip administered consecutively at 12 hr-interval for 24 hrs measured after 24 hrs post-last dose by H and E staining based analysis; assay type: functional, organism-based; details: time 48.0 hrs
Staphylococcus aureus [8] = experiment: Disruption of cell membrane in methicillin-resistant Staphylococcus aureus clinical isolate M12 assessed as accumulation of intracellular ROS level incubated for 40 mins by DCFH-DA probe based analysis; assay type: functional, organism-based; details: dose <= 128.0 µg/ml
[9] = Toxicity in KM mouse assessed as edema in renal tubular epithelial cells at 20 mg/kg, sc measured after 24 hrs by H and E staining based analysis; assay type: organism-based; details: in vivo
Staphylococcus aureus [10] = experiment: as §1, with “pathological change” for “necrosis”, “red medulla of spleen” for “hepatocytes”; assay type: functional, organism-based; details: time 48.0 hrs
[11] = Stability in sheep plasma infected with methicillin-resistant Staphylococcus aureus clinical isolate M12 at 16 ug/ml pretreated compound with plasma for 6 hrs followed by bacterial infection for 16 to 18 hrs; assay type: ADME, cell-free, Ovis aries; details: at 16 µg/mL, time 22-24 hrs
[12] = Toxicity in KM mouse assessed as pathological change in skin at 20 mg/kg, sc measured after 24 hrs by H and E staining based analysis; assay type: organism-based; details: in vivo
[13] = Toxicity in KM mouse assessed as change in RBC count at 20 mg/kg, sc measured after 24 hrs; assay type: organism-based; details: in vivo
Staphylococcus aureus [14] = experiment: Antibacterial activity against methicillin-resistant Staphylococcus aureus clinical isolate M12 infected in KM mouse assessed as decrease in bacterial load in skin tissues at 10 mg/kg, sc measured after 24 hrs by drop-plate counting method (reference value: 6.7); assay type: functional; design: scale not given: the % may be the effect or the level left
[15] = Toxicity in KM mouse assessed as change in albumin level at 20 mg/kg, sc measured after 24 hrs; assay type: organism-based; details: in vivo
[16] = Toxicity in KM mouse infected with methicillin-resistant Staphylococcus aureus clinical isolate M12 assessed as histopathological abnormality in heart at 5 to 10 mg/kg, sc measured after 24 hrs by H and E staining based analysis; assay type: organism-based; details: in vivo, dose 5-10 mg/kg
Staphylococcus aureus [17] = experiment: Antibacterial activity against methicillin-resistant Staphylococcus aureus clinical isolate M20 by CLSI based micro-broth dilution method; assay type: functional
Staphylococcus aureus [18] = experiment: Antibacterial activity against methicillin-resistant Staphylococcus aureus clinical isolate M12 infected in KM mouse assessed as decrease in bacterial survival rate at 10 mg/kg, sc measured after 24 hrs by drop-plate counting method relative to control; assay type: functional
[19] = Toxicity in KM mouse assessed as smooth skin at <20 mg/kg, sc; assay type: organism-based; details: in vivo
Staphylococcus aureus [20] = experiment: as §1, with “degeneration of renal tubular epithelial cells” for “necrosis in hepatocytes”, “6 to 12” for “6”; assay type: functional, organism-based; details: dose 6-12 mg/kg, time 48.0 hrs
[21] = Cytotoxicity against human L02 cells assessed as cell viability at 64 ug/ml by CCK8 assay relative to control; assay type: toxicity, cell-based; details: at 64 µg/mL, read-out: Activity
[22] = Toxicity in KM mouse assessed as pathological change in lung at 20 mg/kg, sc measured after 24 hrs by H and E staining based analysis; assay type: organism-based; details: in vivo
[23] = Toxicity in KM mouse assessed as animal survival at 5 to 80 mg/kg, sc; assay type: organism-based; details: in vivo, dose 5-80 mg/kg
[24] = Toxicity in KM mouse infected with methicillin-resistant Staphylococcus aureus clinical isolate M12 assessed as histopathological abnormality in lung at 5 to 10 mg/kg, sc measured after 24 hrs by H and E staining based analysis; assay type: organism-based; details: in vivo, dose 5-10 mg/kg
[25] = Toxicity in KM mouse infected with methicillin-resistant Staphylococcus aureus clinical isolate M12 assessed as histopathological abnormality in spleen at 5 to 10 mg/kg, sc measured after 24 hrs by H and E staining based analysis; assay type: organism-based; details: in vivo, dose 5-10 mg/kg
[26] = Toxicity in KM mouse assessed as pathological change in liver at 20 mg/kg, sc measured after 24 hrs by H and E staining based analysis; assay type: organism-based; details: in vivo
Staphylococcus aureus [27] = experiment: as §1, with “12” for “6”; assay type: functional, organism-based; details: time 48.0 hrs
Staphylococcus aureus [28] = experiment: Bactericidal activity against methicillin-resistant Staphylococcus aureus clinical isolate M12 assessed as inhibition of bacterial growth at 4 times MIC incubated upto 8 hrs by time-kill assay; assay type: functional, organism-based

C=CCc1cc(-c2ccc(OCCC[N+](C)(C)CC(=O)NCCCC)c(CC=C)c2)c2oc(=S)n(Cc3ccc(F)cc3)c2c1.[Br-]
Activity (Staphylococcus aureus [1]): 102.6 pg/mL | Activity [2]: Non-Toxic | Activity (Staphylococcus aureus [3]): inactive | Activity [4]: Non-Toxic | Activity [5]: Non-Toxic | Activity [6]: Non-Toxic | Activity (Staphylococcus aureus [7]): inactive | Activity (Staphylococcus aureus [8]): Dose-Dependent Effect | Activity [9]: Non-Toxic | Activity (Staphylococcus aureus [10]): inactive | Stability [11]: Stable | Activity [12]: Non-Toxic | Activity [13]: Non-Toxic | Activity (Staphylococcus aureus [14]): 4.1% | Activity [15]: Non-Toxic | Activity [16]: Non-Toxic | MIC (Staphylococcus aureus [17]): 2 µg/mL | Activity (Staphylococcus aureus [18]): 99.67% | Activity [19]: Non-Toxic | Activity (Staphylococcus aureus [20]): Active | viability at 64 ug/ml [21]: ~70% | Activity [22]: Non-Toxic | Activity [23]: Non-Toxic | Activity [24]: Non-Toxic | Activity [25]: Non-Toxic | Activity [26]: Non-Toxic | Activity (Staphylococcus aureus [27]): Active | Activity (Staphylococcus aureus [28]): Active
